Experimental data as given in ChEMBL document CHEMBL1687822, “Inhibition of bacterial multidrug resistance by celecoxib, a cyclooxygenase-2 inhibitor” (2011).

How the values were obtained:
Staphylococcus aureus [1] = assay: Antibacterial activity against Staphylococcus aureus ATCC 29213; assay type: functional
Staphylococcus aureus [2] = assay: Antibacterial activity against methicillin-resistant Staphylococcus aureus ATCC 335913; assay type: functional
[3] = tested on: Mycolicibacterium smegmatis; assay: Antibacterial activity against Mycobacterium smegmatis MC2 155 ATCC; assay type: functional
Staphylococcus aureus [4] = assay: Inhibition of MDR1-mediated […] in Staphylococcus aureus ATCC 29213 assessed as fractional inhibitory concentration index after 24 to 48 hrs in presence of ampicillin
Staphylococcus aureus [5] = assay: Inhibition of MDR1-mediated methicillin-resistant Staphylococcus aureus ATCC 335913 assessed as fractional inhibitory concentration index after 24 to 48 hrs in presence of ampicillin
[6] = tested on: Mycolicibacterium smegmatis MC2 155; assay: Inhibition of MDR1-mediated Mycobacterium smegmatis MC2 155 ATCC assessed as fractional inhibitory concentration index after 24 to 48 hrs in presence of ampicillin
Staphylococcus aureus [7] = assay: Inhibition of MDR1-mediated […] in Staphylococcus aureus ATCC 29213 assessed as fractional inhibitory concentration index after 24 to 48 hrs in presence of kanamycin
Staphylococcus aureus [8] = assay: Inhibition of MDR1-mediated methicillin-resistant Staphylococcus aureus ATCC 335913 assessed as fractional inhibitory concentration index after 24 to 48 hrs in presence of kanamycin
[9] = tested on: Mycolicibacterium smegmatis MC2 155; assay: Inhibition of MDR1-mediated Mycobacterium smegmatis MC2 155 ATCC assessed as fractional inhibitory concentration index after 24 to 48 hrs in presence of kanamycin
Staphylococcus aureus [10] = assay: Inhibition of MDR1-mediated […] in Staphylococcus aureus ATCC 29213 assessed as fractional inhibitory concentration index after 24 to 48 hrs in presence of chloramphenicol
Staphylococcus aureus [11] = assay: Inhibition of MDR1-mediated methicillin-resistant Staphylococcus aureus ATCC 335913 assessed as fractional inhibitory concentration index after 24 to 48 hrs in presence of chloramphenicol
[12] = tested on: Mycolicibacterium smegmatis MC2 155; assay: Inhibition of MDR1-mediated Mycobacterium smegmatis MC2 155 ATCC assessed as fractional inhibitory concentration index after 24 to 48 hrs in presence of chloramphenicol
Staphylococcus aureus [13] = assay: Inhibition of MDR1-mediated […] in Staphylococcus aureus ATCC 29213 assessed as fractional inhibitory concentration index after 24 to 48 hrs in presence of ciprofloxacin
Staphylococcus aureus [14] = assay: Inhibition of MDR1-mediated methicillin-resistant Staphylococcus aureus ATCC 335913 assessed as fractional inhibitory concentration index after 24 to 48 hrs in presence of ciprofloxacin
[15] = tested on: Mycolicibacterium smegmatis MC2 155; assay: Inhibition of MDR1-mediated Mycobacterium smegmatis MC2 155 ATCC assessed as fractional inhibitory concentration index after 24 to 48 hrs in presence of ciprofloxacin
Staphylococcus aureus [16] = assay: Inhibition of MDR1 in Staphylococcus aureus ATCC 29213 assessed as increase in accumulation of ampicillin by EtBr efflux using flow cytometer
Staphylococcus aureus [17] = assay: Inhibition of MDR1 in methicillin-resistant Staphylococcus aureus ATCC 335913 assessed as increase in accumulation of ampicillin by EtBr efflux using flow cytometer
[18] = tested on: Mycolicibacterium smegmatis MC2 155; assay: Inhibition of MDR1 in Mycobacterium smegmatis ATCC MC2155 assessed as increase in accumulation of ampicillin by EtBr efflux using flow cytometer
Staphylococcus aureus [19] = assay: Inhibition of MDR1 in Staphylococcus aureus ATCC 29213 assessed as increase in accumulation of kanamycin by EtBr efflux using flow cytometer
Staphylococcus aureus [20] = assay: Inhibition of MDR1 in methicillin-resistant Staphylococcus aureus ATCC 335913 assessed as increase in accumulation of kanamycin by EtBr efflux using flow cytometer
[21] = tested on: Mycolicibacterium smegmatis MC2 155; assay: Inhibition of MDR1 in Mycobacterium smegmatis ATCC MC2155 assessed as increase in accumulation of kanamycin by EtBr efflux using flow cytometer
Staphylococcus aureus [22] = assay: Inhibition of MDR1 in Staphylococcus aureus ATCC 29213 assessed as increase in accumulation of chloramphenicol by EtBr efflux using flow cytometer
Staphylococcus aureus [23] = assay: Inhibition of MDR1 in methicillin-resistant Staphylococcus aureus ATCC 335913 assessed as increase in accumulation of chloramphenicol by EtBr efflux using flow cytometer
[24] = tested on: Mycolicibacterium smegmatis MC2 155; assay: Inhibition of MDR1 in Mycobacterium smegmatis ATCC MC2155 assessed as increase in accumulation of chloramphenicol by EtBr efflux using flow cytometer
Staphylococcus aureus [25] = assay: Inhibition of MDR1 in Staphylococcus aureus ATCC 29213 assessed as increase in accumulation of ciprofloxacin by EtBr efflux using flow cytometer
Staphylococcus aureus [26] = assay: Inhibition of MDR1 in methicillin-resistant Staphylococcus aureus ATCC 335913 assessed as increase in accumulation of ciprofloxacin by EtBr efflux using flow cytometer
[27] = tested on: Mycolicibacterium smegmatis MC2 155; assay: Inhibition of MDR1 in Mycobacterium smegmatis ATCC MC2155 assessed as increase in accumulation of ciprofloxacin by EtBr efflux using flow cytometer

## CC1(C)S[C@@H]2[C@H](NC(=O)[C@H](N)c3ccccc3)C(=O)N2[C@H]1C(=O)O [AMPICILLIN]
Staphylococcus aureus [1]
  MIC: 5 µg/mL
Staphylococcus aureus [2]
  MIC: 200 µg/mL
[3]
  MIC: 250 µg/mL

## Cc1ccc(-c2cc(C(F)(F)F)nn2-c2ccc(S(N)(=O)=O)cc2)cc1 [CELECOXIB]
Staphylococcus aureus [1]
  MIC: > 100 µM
Staphylococcus aureus [2]
  MIC: > 100 µM
[3]
  MIC: > 100 µM
Staphylococcus aureus [4]
  fractional inhibitory concentration index (FICI): 0.281
Staphylococcus aureus [5]
  fractional inhibitory concentration index (FICI): 0.312
[6]
  fractional inhibitory concentration index (FICI): 0.0665
Staphylococcus aureus [7]
  fractional inhibitory concentration index (FICI): 0.531
Staphylococcus aureus [8]
  fractional inhibitory concentration index (FICI): 0.312
[9]
  fractional inhibitory concentration index (FICI): 0.312
Staphylococcus aureus [10]
  fractional inhibitory concentration index (FICI): 0.281
Staphylococcus aureus [11]
  fractional inhibitory concentration index (FICI): 0.312
[12]
  fractional inhibitory concentration index (FICI): 0.562
Staphylococcus aureus [13]
  fractional inhibitory concentration index (FICI): 0.281
Staphylococcus aureus [14]
  fractional inhibitory concentration index (FICI): 0.312
[15]
  fractional inhibitory concentration index (FICI): 0.188
Staphylococcus aureus [16]
  inhibition: Dose-dependent effect
Staphylococcus aureus [17]
  inhibition: Dose-dependent effect
[18]
  inhibition: Dose-dependent effect
Staphylococcus aureus [19]
  inhibition: Dose-dependent effect
Staphylococcus aureus [20]
  inhibition: Dose-dependent effect
[21]
  inhibition: Dose-dependent effect
Staphylococcus aureus [22]
  inhibition: Dose-dependent effect
Staphylococcus aureus [23]
  inhibition: Dose-dependent effect
[24]
  inhibition: Dose-dependent effect
Staphylococcus aureus [25]
  inhibition: Dose-dependent effect
Staphylococcus aureus [26]
  inhibition: Dose-dependent effect
[27]
  inhibition: Dose-dependent effect

## O=C(N[C@H](CO)[C@H](O)c1ccc([N+](=O)[O-])cc1)C(Cl)Cl [CHLORAMPHENICOL]
Staphylococcus aureus [1]
  MIC: 5 µg/mL
Staphylococcus aureus [2]
  MIC: 100 µg/mL
[3]
  MIC: 10 µg/mL

## O=C(O)c1cn(C2CC2)c2cc(N3CCNCC3)c(F)cc2c1=O [CIPROFLOXACIN]
Staphylococcus aureus [1]
  MIC: 0.25 µg/mL
Staphylococcus aureus [2]
  MIC: 0.25 µg/mL
[3]
  MIC: 0.5 µg/mL

## NC[C@H]1O[C@H](O[C@H]2[C@H](O)[C@@H](O[C@H]3O[C@H](CO)[C@@H](O)[C@H](N)[C@H]3O)[C@H](N)C[C@@H]2N)[C@H](O)[C@@H](O)[C@@H]1O [KANAMYCIN]
Staphylococcus aureus [1]
  MIC: 10 µg/mL
Staphylococcus aureus [2]
  MIC: 100 µg/mL
[3]
  MIC: 0.5 µg/mL
